Like-named read-outs stand apart in the source and are kept apart here. Where no end group is shown, it is not given here. [ ]: non-standard residue; d: D form. Nle = CCCC[C@H](N)C(=O)O
Legend:
DC-cells = assay: Cell penetration assay: staining for biotinylated peptides, dendritic cells gated as CD11c+; format: cell-based, human; settings: low concentration of peptides (208 uM)
Method: A set of peptides were biotinylated on N-terminal, and different combinations of aminoacids, with respect to length and type, were added to the sequence box X^1, X^3 and X^4 in the peptides as illustrated by the diagram below. The peptides were tested on cells grown from one individual blood donor.
96-well U-bottom polystyrene plates (NUNC, cat no: 163320) were used for staining of human PBMCs. Briefly, 8 ul of N- or C-terminally biotinylated peptides according to table 1 or table 2 (i.e. 5 mM, 2.5 mM & 1.25 mM tested for each peptide) were incubated at 37° C. for 2 h with 40 ul of PBMC (12.5×10^6 cells/ml) from blood donors. Cells were then washed 3× with 150 ul of Cellwash (BD, cat no: 349524), followed by resuspension of each cell pellet with 100 ul of Trypsin-EDTA (Sigma, cat no: T4424), then incubated at 37° C. for 5 min. Trypsinated cells were then washed 3× with 150 ul of Cellwash (BD, cat no: 349524), followed by resuspension with BD Cytofix/Cytoperm™ plus (BD, cat no: 554715), then incubated at 4° C. for 20 min according to manufacturer. Cells were then washed 2× with 150 ul PermWash (BD, cat no: 554715). Cells were then stained with Streptavidin-APC (BD, cat no: 554067) & Anti-hCD11c (eBioscience, cat no: 12-0116) according to manufacturer at 4° C. for 30 min aiming to visualize biotinylated peptides & dendritic cells, respectively. Cells were then washed 3× with 150 ul PermWash, followed by resuspension in staining buffer (BD, cat no: 554656) before flow cytometry. Dendritic cells were gated as CD11c+ events outside lymphocyte region (i.e. higher FSC & SSC signals than lymphocytes). 200 000 total cells were acquired on a FACSCanto II flow cytometer with HTS loader, and histograms for both total cells & dendritic cells with respect to peptide-fluorescence (i.e. GeoMean) were prepared.
As shown in table 4 the peptides according to the invention had the ability to allocate through the cell membrane.

human PBMCs = format: cell-based; settings: for Geomean value (peptide-fluorescence): With Cytofix/Cytoperm and trypsination, BC20

Row | Sequence | Results on DC-cells (geomean peptide-fluorescence) (DC-cells; BC 16) | Results on DC-cells (geomean peptide-fluorescence) (DC-cells; BC43) | further results
1 | BRIAYERMCNILLBRGKFQTAAQRA [190b] | 12391 | 20444 | –
2 | BRGSDPLVVAASIVRRASIVGILHLIL [BI100260b] | 37702 | – | –
3 | RNIVPZVVTARRNIVPZVVTAB [BI-050sc5] | 13648 | 15549 | –
4 | RRNYVTGNIPGBRGITFSIFLIVS [SP61_2] | 128330 | 150491 | –
5 | RGYIPLVGAPLGRRVARALAHGVRV [SP24] (RGYIPLVGAPLGRRVARALAHGVRV-NH2) | 18181 | 63639 | –
6 | RRRGYIPLVGAPLGBRVARALAHGVRV [SP8_c] | 9159 | 23763 | –
7 | GYIPLVGAPLGGVARALAHGVRV [51n] | 5551 | 7721 | –
8 | KKGYIPLVGAPLGKKVARALAHGVRV [SP11_c] (KKGYIPLVGAPLGKKVARALAHGVRV-NH2) | 5371 | 7878 | –
9 | GYIPLVGAPLGGVARALAHGVRV [SP1_C] (GYIPLVGAPLGGVARALAHGVRV-NH2) | 9234 | – | –
10 | RGYIPLVGAPLGKKKVARALAHGVRV [SP9] | 8356 | 10084 | Geomean value (peptide-fluorescence) (human PBMCs; concentration 104 μM): 1268; Geomean value (peptide-fluorescence) (human PBMCs; concentration 208 μM): 2945; Geomean value (peptide-fluorescence) (human PBMCs; concentration 417 μM): 6060; Geomean value (peptide-fluorescence) (human PBMCs; concentration 833 μM): 11344
11 | BRGYIPLVGAPLGRRVARALAHGVRV [SP7] | 16064 | 21414 | Geomean value (peptide-fluorescence) (human PBMCs; concentration 104 μM): 2766; Geomean value (peptide-fluorescence) (human PBMCs; concentration 208 μM): 10481; Geomean value (peptide-fluorescence) (human PBMCs; concentration 417 μM): 30503; Geomean value (peptide-fluorescence) (human PBMCs; concentration 833 μM): 47922
12 | BRRLFFKTITRLFBHGLRRLLSTEGVPNSZ [BI10026] | 65196 | 43536 | –
13 | RRGYIPLVGAPLGLRRVARALAHGVRV [SP17_c] | 11830 | – | –
14 | BRGLEPLVIAGILARRGSLVGLLHIVL [BI100260] | 47846 | – | –
15 | IAYERMCNILKGKFQTAAQRA [190n] | 18616 | 23383 | –
16 | WWGYLPAVGAPIRRVIRVIAHGLRL [SP51_1*] | 66582 | – | –
17 | RNLVPMVATVBRRNLVPMVATVB [BI-050sc2] | 6019 | 11584 | –
18 | RGYIPLVGAPLGRRRVARALAHGVRV [SP4_c] | 20673 | 30786 | –
19 | WGYIPLVGAPLGRRVARALAHGVRV [SP12_c] (WGYIPLVGAPLGRRVARALAHGVRV-NH2) | 37100 | 43386 | –
20 | LFFKCIYRLFKHGLKRGPSTEGVPESM [BI10024b] | 26892 | 13002 | –
21 | BRLIFLARSALILBGRSALILRGSVAHK [120b] | 44185 | – | –
22 | RRVTGNIPGSTYSGBRGITFSIYLIVS [SP25] | 11552 | – | –
23 | WWGYIPLVGAPLGRVARALAHGVRV [SP23] | 17084 | 12801 | –
24 | RNLVPMVATVBRRNLVPMVATVB [compound 18] | – | – | Intracellular staining, median (human PBMCs): 3.86
25 | WWGYIPLVGAPLGRRRVARALAHGVRV [SP22] | 61597 | 18624 | –
26 | RFIIPXFTALSGGRRALLYGATPYAIG (RFIIP[Nle]FTALSGGRRALLYGATPYAIG) [V10] | 45430 | – | –

Row | Sequence | Results on DC-cells (geomean peptide-fluorescence) (DC-cells; BC 16) | Results on DC-cells (geomean peptide-fluorescence) (DC-cells; BC43) | further results
27 | KALGPAATLEEMMTACQGVG [N13] | 7982 | 5953 | –
28 | RGYIPLVGAPLGRRVARALAHGVRV [SP3_c] (RGYIPLVGAPLGRRVARALAHGVRV-NH2) | 18505 | 26308 | –
29 | WWGGGQIVGGVYLLPRRGPRLGVRAT [SP11b_1] | 64047 | – | –
30 | WWNYVTGNIPGRRGITFSIFLIVS [SP61_4] | 12829 | – | –
31 | WWGYIPLVGAPLGRRVARALAHGVRV [SP21] (WWGYIPLVGAPLGRRVARALAHGVRV-NH2) | 26525 | 4294 | –
32 | EDLIFLARSALILRGSVAHKS [100-22b] | 43537 | 28780 | –
33 | BRTAYERZCNILBRGRFQTVVQBA [compound 190] | 12906 | – | –
34 | BRLIFLARSALIVRGSVAHKS [100-12] | 24792 | 45622 | –
35 | YGRKKRRQRRR [compound 4, Positive control (tat), reference compound] | – | – | Intracellular staining, median (human PBMCs): 4.43
36 | BRGYIPLVGAPLGRRVARALAHGVRV [SP7_c] | 20041 | 11832 | –
37 | RGYIPLVGAPLGKKKVARALAHGVRV [SP9_c] (RGYIPLVGAPLGKKKVARALAHGVRV-NH2) | 6180 | 7758 | –
38 | RGYIPLVGAPLGRRRVARALAHGVRV [SP10_c] (RGYIPLVGAPLGRRRVARALAHGVRV-NH2) | 6904 | – | –
39 | RRGYIPLVGAPLGRRRVARALAHGVRV [SP6_c] (RRGYIPLVGAPLGRRRVARALAHGVRV-NH2) | 17964 | 38487 | –
40 | WWGYIPLVGAPLGRRVARALAHGVRV [SP13_c] (WWGYIPLVGAPLGRRVARALAHGVRV-NH2) | – | 60307 | –
41 | RNLVPMVATVRRNLVPMVATVB [BI-050sc1] | 6056 | 6160 | –
42 | SAYERMCNILKGKFQTAAQRAMM [18b] | 29740 | 33597 | –
43 | RRGYIPLVGAPLGRRVARALAHGVRV [SP5_c] (RRGYIPLVGAPLGRRVARALAHGVRV-NH2) | 16908 | 24403 | –
44 | WWNYVTGNIPGBRGITFSIFLIVS [SP61_3] | 47182 | 36803 | –
45 | WWIRNLGRVIETLTRRLZGYIPLIGA [SP42_1] | 73973 | – | –
46 | PEVIPMFSALSEGATPQDLNTMLN [N10] | 4597 | – | –
47 | BRTAYERZCNILBRGRFQTVVQBA [compound 17] | – | – | Intracellular staining, median (human PBMCs): 20.77
48 | WWSRNLGKVIDTLTCRRLMGYIPLVGA [SP42b_1] | 17628 | – | –
49 | RRGYIPLVGAPLGBGRVARALAHGVRV [SP2_c] | 323 | 13341 | –
50 | GGGQIVGGVYLLPRRGPRLGVRATR [310-11n] | 5436 | – | –
51 | RRGGGQIVGGVYLLPRRGPRLGVRATR [310-11-n-sc] | 25236 | – | –

— US9550811B2, “Peptide scaffold design” (BIONOR IMMUNO AS, priority 2010, dated 2017)
